# Read-outs that look alike come from different tables or passages of the source. Marks after values point to notes of the source that are not given here.
# Key:
# [1] = NMR method: depletion of electrophile signal on reaction with DCYA
# Source text: The described example can be applied to pure chemicals and mixtures. The method includes the acquisition of at least one NMR spectrum, mixing an electrophile and a nucleophile to acquire an array of control spectra and an addition of catalyst to record an array of reaction spectra. It also includes the quantification of at least one signal and the comparison of the signal with a control and the classification of the reaction based on the depletion of potential sensitizer based on the quantified residual signal.
# 2,5-Dimethylfuran was used as internal standard. When necessary, characterization of the product(s) formed during the reaction(s) was performed by homonuclear ^1H connectivities using 2D-COSY experiments. […] Two- and three bond ^1H-^13C connectivities were determined by gradient-HMBC experiments in which the evolution period for long-range ^1H-^13C coupling constants was optimized for a ^2,3JC,H of 8 Hz. Through-space ^1H connectivities were determined using a NOESY experiment with a mixing time of 0.450 s. […] Toronto, Canada].
# In a 3 mm NMR tube, 1 volume of DCYA (100) mM in CDCl3) was mixed with one volume of sensitizer (100 mM in CDCl3) to give a final concentration of 50 mM for both DCYA and the sensitizer. Control ^1H NMR spectra (reference spectra) were recorded at regular intervals of for a minimum of 5 min. […] All spectra were recorded at constant temperature. All experiments were conducted using the manufacturer's standard presaturation pulse programs and experimental conditions were chosen as explained in NMR spectroscopy section. The progress of the reaction was followed by the diminished peak areas of the resonances for the signal of interest. The spectra were phased, referenced, and integrated using NMR data elaboration software. The structural characterizations of the resulting adducts were confirmed by conducting additional 2D-NMR experiments when necessary.
# Covalent reaction of DCYA with carvone is dependent on the activation of the nucleophilic group (ex. sulfhydryl group to the reactive thio-anion) under basic conditions. This reaction is strongly dependent on the nature of the nucleophile and may be modulated by careful choice of the model nucleophile and the reaction conditions.
# The control spectra are used as reference spectra (FIG. 3A). All the spectra were subjected to automatic phase and baseline correction using a Bernstein polynomial fit (order 3). After these two steps, all the spectra were integrated over the areas of interest. […] Both vinylic and adduct peak areas were normalized relative to the internal standard signal peaks. […] The concentrations of both electrophile and adduct were then plotted as percentage against time (in minutes). (FIG. 5).
# [2] = Microplate spectrophotometric method (DCYA assay), fluorescence end-point; settings: for DCYA 100-RI: RI = reactivity index, 2 equiv. electrophile, pH 10 buffer; for DCYA binary classification: FN: false negative; for DCYA binary classification: FP: false positive; for DCYA binary classification: TN: true negative; for DCYA binary classification: TP: true positive, positive if 100-RI <95; for DCYA assay reactivity / classification in words: microplate spectrophotometric method
# thiol peptide [3] = assay: Cys-DPRA (Direct Peptide Reactivity Assay), literature data; settings: for Cys-DPRA binary classification: FN: false negative; for Cys-DPRA binary classification: FP: false positive; for Cys-DPRA binary classification: TN: true negative; for Cys-DPRA binary classification: TP: true positive
# [4] = system: ARE-dependent gene activity in a recombinant cell line; settings: cited from earlier work
# [5] = cited from earlier work; for LLNA (EC3): effective concentration, published literature (Table 1); for LLNA Classification: published literature; for LLNA EC3: reported results (Table 7)
# thiol peptide [6] = settings: cited from earlier work; for Cys-DPRA % Pept. remain.: reported results from the literature
# [7] = based on depletion of electrophile signal at 30 min
# [8] = conversion of test chemical at 90 min, 1 equiv. DCYA, 0.1 equiv. DBN, CDCl3
Compound,DCYA 100-RI [2],DCYA binary classification: FN [2],DCYA binary classification: FP [2],DCYA binary classification: TN [2],DCYA binary classification: TP [2],Cys-DPRA binary classification: FN (thiol peptide [3]),Cys-DPRA binary classification: FP (thiol peptide [3]),Cys-DPRA binary classification: TN (thiol peptide [3]),Cys-DPRA binary classification: TP (thiol peptide [3]),further results
C=C(C)[C@@H]1CCC2=CC(=O)C[C@@H](C)[C@]2(C)C1 [Nootkatone],–,–,–,–,–,–,–,–,–,"Conversion at t30 (depletion of electrophile signal) ([1]; at 30 min, 1 equiv. DCYA): 0%; NMR Classification [1, 7]: Non; NMR Method conversion [1, 8]: 0%"
O=Cc1ccccc1 [Benzaldehyde],98.1,0,0,1,0,0,1,0,0,–
CC=CC(=O)CC [4-Hex-3-en-one],2.8,0,0,0,1,0,0,0,–,LLNA EC3 [5]: 4.2%
"C=C1CC(OC(=O)/C(C)=C/C)C2C(=C)C(=O)OC2/C=C(\C)C(O)CC1O (stereo not drawn) [hydroxyiso-nobilin, hydroxyisonobilin]",–,–,–,–,–,–,–,–,–,DCYA assay reactivity / classification in words [2]: highly reactive
O=C1CCO1 [Propionolactone],–,0,0,0,1,0,0,0,–,–
COc1cc(/C=C/C(=O)CC(=O)/C=C/c2ccc(O)c(OC)c2)ccc1O [Curcumin],–,–,–,–,–,–,–,–,–,"Conversion at t30 (depletion of electrophile signal) ([1]; at 30 min, only one equivalent of DCYA, curcumin in DMSO-d6): 17^# %; Conversion at t30 (depletion of electrophile signal) ([1]; at 30 min, two equivalents of DCYA, curcumin in DMSO-d6): 43* %; NMR Method conversion ([1]; at 90 min, one equivalent of DCYA, DMSO-d6): 18%; NMR Method conversion ([1]; at 90 min, two equivalents of DCYA, DMSO-d6): 43%"
C=C1C(=O)O[C@@H]2/C=C(/C)[C@H](O)C[C@@H](O)C(=C)C[C@H](OC(=O)/C(C)=C\C)[C@@H]12 [3 epi-hydroxyisonobilin],–,–,–,–,–,–,–,–,–,DCYA assay reactivity / classification in words [2]: highly reactive
Nc1ccccc1 [Aniline],–,–,–,–,–,–,–,–,–,KeratinoSens ™ EC3 ([4]; reported results (Table 7)): >2000 µM; Cys-DPRA % Pept. remain. (thiol peptide [6]): 100%
CC1=C(C=O)C(C)(C)CC=C1 [Safranal],82.9,0,0,0,1,0,0,0,1,"LLNA (EC3) [5]: 7.5%; LLNA Classification [5]: Moderate; LLNA EC3 [5]: 7.5%; Cys-DPRA, percentage of thiol peptide depleted (thiol peptide [6]; adopted from the literature): 90.5^15%; Cys-DPRA % Pept. remain. (thiol peptide [6]): 9.5%; NMR assay reactivity / classification in words [1]: less reactive by NMR in the short time frame; Conversion at t30 (depletion of electrophile signal) ([1]; at 30 min, 1 equiv. DCYA): 3%; NMR Classification [1, 7]: Non; NMR Method conversion [1, 8]: 4%"

# More lines, main results first:
DCYA 100-RI [2],DCYA binary classification: FN [2],DCYA binary classification: FP [2],DCYA binary classification: TN [2],DCYA binary classification: TP [2],Cys-DPRA binary classification: FN (thiol peptide [3]),Cys-DPRA binary classification: FP (thiol peptide [3]),Cys-DPRA binary classification: TN (thiol peptide [3]),Cys-DPRA binary classification: TP (thiol peptide [3]),Compound,further results
89.4,0,1,0,0,0,0,1,0,O=C(O)C(=O)O [Oxalic acid],–
88.8,0,0,0,1,0,0,0,1,CC(C)=CCCC(C)=CC=O [Citral],"KeratinoSens ™ EC3 ([4]; published literature (Table 1)): 67.36 µM; KeratinoSens ™ EC3 ([4]; reported results (Table 7)): 67.36 µM; LLNA (EC3) [5]: 9.2%; LLNA Classification [5]: Moderate; LLNA EC3 [5]: 9.2%; NMR assay reactivity / classification in words [1]: moderate/low electrophilic behavior; Conversion at t30 (depletion of electrophile signal) ([1]; 30 min, 50 mM): 29%; NMR Method conversion ([1]; 90 min, 50 mM): 29%; NMR Classification [1, 7]: Weak-moderate"
100.1,0,0,1,0,0,0,1,0,CC(O)C(=O)O (stereo not drawn) [Lactic acid],KeratinoSens ™ EC3 ([4]; reported results (Table 7)): >2000 µM
110.6,0,0,1,0,0,0,1,0,O=C(OCc1ccccc1)c1ccccc1 [Benzyl benzoate],–
18.2,–,–,–,–,–,–,–,–,"CC/C=C/C=O [t-2-Pentenal, trans-2-Pentenal]","DCYA assay reactivity / classification in words [2]: moderate reactive; NMR Classification [1]: Strong; Conversion at t30 (depletion of electrophile signal) ([1]; 30 min, 50 mM): 80%; NMR Method conversion ([1]; 90 min, 50 mM): 80%"
100.7,0,0,1,0,0,0,1,0,O=C(O)C(O)C(O)C(=O)O (stereo not drawn) [Tartaric acid],–
103.5,–,–,–,–,–,–,–,–,Oc1cccc(O)c1 [Resorcinol],DCYA assay reactivity / classification in words [2]: non-reactive
106.9,0,0,1,0,0,0,1,0,O=C(O)c1ccccc1O [Salicylic acid],KeratinoSens ™ EC3 ([4]; reported results (Table 7)): >2000 µM
